From article PMC9119314 (Frontiers in Pharmacology, 2022)
“Also recorded” adds a separate entry of the source. Read-outs that look alike come from different tables or passages of the source.

Experiments:
P. falciparum 3D7 = assay: In vitro antiplasmodial activity, P. falciparum 3D7 (SYBR Green I); assay type: cell-based; settings: Plasmodium falciparum, read-out: Activity against P. falciparum 3D7, IC50
Description: (§1) P. falciparum (3D7 clone) and P. knowlesi (A1-H.1 clone) were maintained in culture in RPMI 1640 supplemented with 25 mM HEPES, 25 mM NaHCO3, 10 mM D-glucose, 2 mM L-glutamine, 50 mg/L hypoxanthine, 25 mg/L gentamicin sulfate, 5 g/L Albumax II, and 10% (v/v) equine serum (Thermo Fisher Scientific, 26-050-088). The P. falciparum (3D7) and P. knowlesi (A1-H.1) parasites were grown in human A^+ red blood cells (National Health Blood and Transplant, United Kingdom). The parasites were incubated in sealed flasks at 37°C under a culture gas mixture of 96% N2, 3% CO2, and 1% O2. ([van Schalkwyk et al., 2019]). The compounds were initially dissolved in DMSO prior to diluting in RPMI. All experiments were initiated using unsynchronized parasites with both the parasitemia and hematocrit set to 1%. Drug susceptibility assays were set up in 96-well, flat-bottom microplates in a final volume of 200 μL, as described previously ([van Schalkwyk et al., 2017]). The controls were included for the background fluorescence (0% viability; parasites exposed to a supralethal 10 μM chloroquine concentration) and 100% growth (parasites in drug-free wells). The plates were incubated for one complete life cycle (27 h for P. knowlesi or 48 h for P. falciparum in vitro) at 37°C in a modular incubation chamber (Billups-Rothenburg Inc.) under the culture gas. Upon termination of the assay, the plates were stored at −20°C overnight. The SYBR Green I fluorescent method was used to measure parasite survival ([Bennett et al., 2004]; [Smilkstein et al., 2004]). After the microplates were thawed, 100 μL from each well was transferred into a duplicate plate. To this was added 100 μL of SYBR green solution [SYBR Green I (Thermo Fisher Scientific, S7563), diluted 1:5000 in a lysis buffer made of 20 mM Tris, 5 mM EDTA, 0.008% (w/v) saponin, 0.08% (v/v) Triton X-100, pH 7.5]. The plates were stored in the dark for 1 h before fluorescence was read at a 490 nm excitation wavelength and a 520 nm emission wavelength on a Spectramax M3 microplate reader (Molecular Devices) ([van Schalkwyk et al., 2017]). The background fluorescence (wells with parasites at 0% viability) was subtracted from all drug assay wells, and the parasite proliferation was determined as a percentage of the fluorescence in the drug-free control wells.

P. knowlesi A1-H.1 = assay: In vitro antiplasmodial activity, P. knowlesi A1-H.1 (SYBR Green I); assay type: cell-based, Plasmodium knowlesi; settings: Plasmodium knowlesi, 27 h, read-out: Activity against P. knowlesi A1-H.1, IC50, 27 h, ± SD
Description: as §1

[1] = system: P. falciparum (NF54-Mal8p1.16-GFP-Luc) late-stage gametocytes; assay: microbe, parasite or virus in culture; assay type: cell-based, Plasmodium falciparum; settings: Plasmodium falciparum; for inhibition at 5 µM: NF54, read-out: Inhibition of late-stage gametocytes
Description: Gametocytes were produced as per [Reader et al. (2015]; [2021)] from P. falciparum NF54-Mal8p1.16-GFP-Luc ([Adjalley et al., 2011]), and each batch was validated for viability and functionality before use. […] Drug assays were set up on day 10 (representing late gametocytes, >90% stage IV/V gametocytes) using a 2–3% gametocytemia, 1.5% hematocrit culture. The drug pressure was for 48 h under stationary, hypoxic conditions (90% N2, 5% O2, and 5% CO2) at 37°C. Luciferase activity was determined in 30 μL parasite lysates by adding 30 μL luciferin substrate (Promega Luciferase Assay System) at room temperature and detection of resultant bioluminescence at an integration constant of 10 s with the GloMax®-Multi + Detection System with Instinct® Software. Methylene blue (5 μM) and an internal control (MMV390048, 5 μM) were routinely included as controls.

Hep G2-A16-CD81 cells = assay: Hep G2 cellular toxicity counter-screen (CellTiterGlo); assay type: cell-based; settings: HepG2-A16-CD81, no sporozoites, ± SE, read-out: Activity against Hep G cells
Description: (§2) Briefly, 3000 Hep G2-A16-CD81 cells/well were seeded in 1536-well plates (Greiner Bio). 50 nL of the test and control compound diluted in DMSO was added and incubated for 24 h. […] The plates were centrifuged for 5 min at 330 × g and incubated at 37°C. Forty-eight hours post infection, 2 μL of luciferin reagent (Promega BrightGlo) was added to each well, and the luciferase activity was detected using a Perkin Elmer Envision plate reader. […] To counter-screen for cellular toxicity, Hep G2-A16-CD81 cells were seeded as above for the sporozoite liver-stage assay but in the absence of sporozoites. Toxicity measurements were performed by adding Promega CellTiterGlo® (2 μL), followed by luminescence measurements. Curve fitting was done as described above using puromycin (25 μM) as a positive control and DMSO as negative control wells.

[2] = Acute oral toxicity in mice; assay type: in vivo; settings: oral, 20, 50 and 100 mg/kg/dose × 3 consecutive days; up to 100 mg/kg/dose; 2 as hydrochloride, 4–6 as citrate
Description: Female NIH Swiss mice aged 6–12 weeks were used (Envigo, Blackthorn, United Kingdom). The mice were kept in cages housed in isolation cabinets in an air-conditioned room with regular alternating cycles of light and darkness. They received Teklad 2018 diet (Envigo, Blackthorn, United Kingdom) and water ad libitum. All animal procedures were carried out under a project license issued by the UK Home Office, and UK National Cancer Research Institute Guidelines for the Welfare of Animals were followed throughout. […] A group of two untreated control animals was included at each dose level. Following treatment, the body weight was measured on a regular basis, and behavior and general appearance were monitored visually to assess for deleterious effects (e.g., dehydration, impaired mobility, hunched posture, a low body temperature, ulceration, and significant bodyweight loss), with any effects during the study recorded. […] If no deleterious effects were seen after at least 18 days of study, then the animals were sacrificed, and the dose was considered non-toxic.

P. falciparum K1 [3] = system: P. falciparum K1; parameters: method as in Onyeibor et al., 2005; settings: strain K1; ref Onyeibor et al., 2005; read-out: Activity against P. falciparum K1, IC50; cited from earlier work
P. berghei = settings: I.P., 25 mg/kg; ref Onyeibor et al., 2005; cited from earlier work
P. falciparum K1 [4] = assay: In vitro antiplasmodial activity, P. falciparum K1 (lactate dehydrogenase assay); assay type: cell-based, Plasmodium falciparum; settings: Plasmodium falciparum, read-out: Activity against P. falciparum K1, IC50
Description: P. falciparum (K1 clone) was maintained in human erythrocytes prepared from the donated blood samples (blood groups unknown, Ethical Tissue, University of Bradford), suspended in the RPMI 1640 medium as previously described ([Wright et al., 2001]), except that serum was replaced with Albumax II, [5% (^w/v)]. […] Twofold serial dilutions were made in 96-well microtiter plates in duplicate, and infected erythrocytes were added to give a final volume of 100 µL with 2.5% hematocrit and 1% parasitemia. Chloroquine diphosphate was used as a positive control, and uninfected and infected erythrocytes without compounds were included in each test. The plates were placed into a modular incubator; gassed with 93% nitrogen, 3% oxygen, and 4% carbon dioxide; and incubated at 37°C for 48 h. The parasite growth was assessed by measuring lactate dehydrogenase activity as described by [Makler et al. (1993)]. The reagent used contained the following in each mL: acetylpyridine adenine dinucleotide (APAD), 0.74 mg; lithium lactate, 19.2 mg; diaphorase, 0.1 mg; Triton X-100, 2 μL; nitroblue tetrazolium, 1 mg; and phenazine ethosulphate, 0.5 mg. Fifty microliter of this reagent was added to each well and mixed; plates were incubated for 15 min at 37°C. The optical densities were read at 550 nm using an Azure 96-well microplate reader (Azure Biosystems Inc.), and % inhibition of growth was calculated by comparison with the control values. IC50 values were determined using linear regression analysis (Microsoft Excel). A minimum of three separate determinations was carried out for each compound.

[5] = system: T. brucei bloodstream forms (strain 427, derivative 221); assay: In vitro activity against T. brucei bloodstream forms (resazurin); assay type: cell-based, Trypanosoma brucei; settings: Trypanosoma brucei, bloodstream forms, hydrochloride salts except 6 (citrate), ± SE
Description: Bloodstream form T. brucei (strain 427, derivative 221) was maintained in modified Iscove’s medium, as described previously ([Taylor et al., 2013]). […] The parasites were diluted to 1 × 10^4 ml^−1, the compound was added at a range of concentrations, and the plates were incubated at 37°C in 5% CO2 for 48 h. Resazurin was then added to each well, and the plates were incubated for a further 16 h. Fluorescence intensities were determined using a BMG FLUOstar Omega plate reader (excitation 545 nm, emission 590 nm), and data were analyzed using Graph Pad Prism 9.0 software. […]

A2780/WT cells = assay: Chemosensitivity MTT assay, A2780 wild type; assay type: cell-based, human; settings: ± SE, read-out: Activity against A2780/WT cells, IC50
Description: (§3) The chemosensitivity of compounds 3–6 was assessed in the wild-type immortalized human ovarian adenocarcinoma cell line A2780 and its daughter cell lines, which are resistant to the standard cancer chemotherapeutics doxorubicin (A2780/ADR) and cisplatin (A2780/CIS, all cell lines from ECACC, Salisbury, United Kingdom). A modified MTT assay was used ([Shnyder et al., 2008]). Cells (2 × 10^4/ml) were inoculated into each well of a 96-well plate and incubated for 24 h at 37°C in a humidified atmosphere containing 5% CO2. Compounds were then added at a range of concentrations to each well, and the plates were then incubated for a further 96 h. After 96 h, the culture medium was removed and 200 μL of 0.5 mg ml^–1 MTT solution (Sigma) in the complete medium was added to each well. Following a further 4 h incubation, the solution was removed from each well and 150 μL of DMSO was added to solubilize the formazan crystals resulting from MTT conversion. The absorbance values for the resulting solutions were read at 540 nm on an Azure 96-well microplate reader (Azure Biosynstems Inc.), and the cell survival was calculated as the absorbance of treated cells divided by the control.

A2780/ADR cells = assay: Chemosensitivity MTT assay, doxorubicin-resistant A2780/ADR; assay type: cell-based; settings: Homo sapiens, 96 h, ± SE, read-out: Activity against A2780/ADR cells, IC50
Description: as §3, with “A” for “The chemosensitivity of compounds 3–6 was assessed in the wild-type immortalized human ovarian adenocarcinoma cell line A2780 and its daughter cell lines, which are resistant to the standard cancer chemotherapeutics doxorubicin (A2780/ADR) and cisplatin (A2780/CIS, all cell lines from ECACC, Salisbury, United Kingdom). A”

A2780/cis cells = assay: Chemosensitivity MTT assay, cisplatin-resistant A2780/CIS; assay type: cell-based, human; settings: 96 h, ± SE, read-out: Activity against A2780/cis cells, IC50
Description: as §3

P. berghei sporozoites = assay: P. berghei liver-stage assay (sporozoites in Hep G2-A16-CD81 cells, luciferase); assay type: cell-based, Plasmodium berghei; settings: Plasmodium berghei, HepG2-A16-CD81, 48 h, read-out: Activity against the P. berghei liver stage, IC50
Description: as §2

Compound `Cn1c2c3cc(Br)ccc3nc-2cc2cc(Br)ccc21` [Compound 2, 2,7-dibromocryptolepine] has an IC50 (P. falciparum 3D7; chloroquine-sensitive strain 3D7, 48 h) of 30 ± 6 nM, an IC50 (P. knowlesi A1-H.1) of 30 ± 4.5 nM and an IC50 ([1]; NF54, 48 h, read-out: Activity against late-stage gametocytes IC50) of 2000 ± 170 nM. For the same compound, the IC50 (Hep G2-A16-CD81 cells) was 4940 ± 1810 nM, the “Acute oral toxicity in mice” value [2] was “No toxicity was seen; also recorded: not toxic” and the IC50 (P. falciparum K1 [3]) was 49 ± 20 nM. The “Suppression of parasitemia in mice” value (P. berghei) was 90% and the “Toxicity to mice in the antimalarial test” value (P. berghei) was “without apparent toxicity”.
For `C[n+]1c2ccccc2cc2[n-]c3ccc(Br)cc3c21` [Compound 3, 7-Bromocryptolepine], the IC50 (P. falciparum K1 [4]; chloroquine-resistant strain K1, 48 h, mean ± SE) was 150 ± 30 nM, the IC50 ([5]; 64 h, 48 h + 16 h resazurin) was 199 ± 15 nM and the IC90 [5] was 256 ± 6 nM. For the same compound, the IC50 (A2780/WT cells; Homo sapiens, A2780, 96 h) was 70 ± 10 nM, the IC50 (A2780/ADR cells) was 170 ± 40 nM and the IC50 (A2780/cis cells; Homo sapiens, A2780cis) was 230 ± 20 nM.
For `O=C1C(O)=C([C@H]2CC[C@H](c3ccc(Cl)cc3)CC2)C(=O)c2ccccc21` [Atovaquone, reference compound], the IC50 (P. berghei sporozoites) was 0.383 nM.
For `CS(=O)(=O)c1ccc(-c2cnc(N)c(-c3ccc(C(F)(F)F)nc3)c2)cc1` [MMV 390048, reference compound], the inhibition at 5 µM [1] was 96.2%.
Compound `CCN(CC)CCCC(C)Nc1ccnc2cc(Cl)ccc12` (stereo not drawn) [Chloroquine diphosphate, reference compound] has an IC50 (P. falciparum K1 [4]; K1, 48 h) of 350 ± 140 nM, an IC50 (P. falciparum 3D7; 3D7, 48 h) of 12 ± 3 nM and an IC50 (P. knowlesi A1-H.1) of 20 ± 3 nM.
Compound `CN(C)c1ccc2nc3ccc(=[N+](C)C)cc-3sc2c1` [Methylene blue, reference compound] has an inhibition at 5 µM [1] of 96%.
In the case of `N.N.[Cl][Pt][Cl]` [Cisplatin, reference compound], the IC50 (A2780/WT cells; 96 h) is reported as 3470 ± 2200 nM and the IC50 (A2780/cis cells) is reported as 24700 ± 2750 nM.
`COc1cccc2c1C(=O)c1c(O)c3c(c(O)c1C2=O)C[C@@](O)(C(=O)CO)C[C@@H]3O[C@H]1C[C@H](N)[C@H](O)[C@H](C)O1` [Doxorubicin, reference compound] gave an IC50 (A2780/WT cells; Homo sapiens, A2780, 96 h) of 70 ± 60 nM and an IC50 (A2780/ADR cells) of 3030 ± 350 nM.
